The term IC50 denotes the midpoint of a concentration-inhibition curve.

*1 amine or outer side, *2 acyl side, *3 side chain or, on linkers, in order; H or OH if unused. Where a SMILES comes first, the peptide text is derived from it. [ ]: non-standard residue; d: D form. The star is where a group is joined. Dolaproine = CO[C@@H]([C@@H]1CCCN1)[C@@H](C)C(=O)O; Dil = CC[C@H](C)[C@H](NC)[C@@H](CC(=O)O)OC; X9 = CCN([C@@H](CO)C(=O)[*:2])[*:1]; X1 = C[C@@H](N*)[C@@H](O)c1ccccc1; X10 = C[C@H]1OC(=O)N[C@@H]1C(=O)*; Phe(ol) = N[C@H](CO)Cc1ccccc1; X6 = CN(C)[C@@H](CCO)C(=O)*; X8 = CN1C(=O)OC[C@H]1C(=O)*; X5 = O=C1N[C@H](C(=O)*)CO1; NMeS = CN[C@@H](CO)C(=O)O; hSer = N[C@@H](CCO)C(=O)O; X7 = O=C1NC(C(=O)*)CCO1 Some results are limits rather than exact numbers.

What all share (assay): In vitro cytotoxicity, cell proliferation assay (CellTiter-Glo, 96 h)
Common to all, as to assay type: cell-based
Background: Cellular ATP, detected with luciferase, serves as a proxy for viable cell number.

The subject of one assay is Karpas299 NHL. As to conditions: Homo sapiens, KARPAS-299, auristatin free drug. The procedure: (§1) The cytotoxicity of free drugs and drug conjugates were measured by a cell proliferation assay employing the protocol described in Promega Corp. Technical Bulletin TB288; and Mendoza et al., 2002, Cancer Res. 62:5485-5488), the methods of which are specifically incorporated by reference herein. Briefly, an aliquot of 40 μl of cell culture containing about 400 cells in medium is deposited in each well of a 384-well, opaque-walled plate. A 10 μL aliquot of free drug or drug conjugate is added to the experimental wells and incubated for 96 h and are then equilibrated to room temperature for approximately 30 minutes whereupon a volume of CellTiter-Glo™ reagent equal to the volume of cell culture medium present in each well is added. The contents are mixed for 2 minutes on an orbital shaker to induce cell lysis and the plate is incubated at room temperature for 10 minutes to stabilize the luminescence signal for recordation.

For a further assay, the system named is L540cy HL. The following applies: auristatin free drug. How it is done: as §1
For the next assay, the system named is DEL ALCL. As to conditions: auristatin free drug. The procedure:
as §1

In the case of `CC[C@H](C)[C@@H]([C@@H](CC(=O)N1CCC[C@H]1[C@H](OC)[C@@H](C)C(=O)N[C@@H](Cc1ccccc1)C(=O)O)OC)N(C)C(=O)[C@@H](NC(=O)[C@H](CO)NC)C(C)C` [Comparative Example A, reference compound] (H-[NMeS]V[Dil][Dolaproine]F-OH), the IC50 in the assay on Karpas299 NHL is 253 nM; with L540cy HL, > 1000 nM; in the assay with DEL ALCL, 209 nM.
In the same order, the values of `CC[C@H](C)[C@@H]([C@@H](CC(=O)N1CCC[C@H]1[C@H](OC)[C@@H](C)C(=O)N[C@@H](Cc1ccccc1)C(=O)O)OC)N(C)C(=O)[C@@H](NC(=O)[C@@H]1COC(=O)N1C)C(C)C` [Comparative Example C, reference compound] (X8-V[Dil][Dolaproine]F-OH) are 218 nM, 284 nM and 342 nM.
In the same order, the values of `CC[C@H](C)[C@@H]([C@@H](CC(=O)N1CCC[C@H]1[C@H](OC)[C@@H](C)C(=O)N[C@H](CO)Cc1ccccc1)OC)N(C)C(=O)[C@@H](NC(=O)[C@H](CCO)N(C)C)C(C)C` [Example 9] (X6-V[Dil][Dolaproine][Phe(ol)]) are 0.9 nM, 4 nM and 0.8 nM.
In the same order, the values of `CC[C@H](C)[C@@H]([C@@H](CC(=O)N1CCC[C@H]1[C@H](OC)[C@@H](C)C(=O)N[C@H](C)[C@@H](O)c1ccccc1)OC)N(C)C(=O)[C@@H](NC(=O)[C@H]([C@@H](C)O)N(C)C)C(C)C` [Example 10] are 0.5 nM, 3 nM and 0.4 nM.
`CC[C@H](C)[C@@H]([C@@H](CC(=O)N1CCC[C@H]1[C@H](OC)[C@@H](C)C(=O)N[C@H](C)[C@@H](O)c1ccccc1)OC)N(C)C(=O)[C@@H](NC(=O)[C@@H](CO)N(C)C)C(C)C` [Example 11]: the IC50 in the assay on Karpas299 NHL was found to be 1 nM; with L540cy HL, 6 nM; with DEL ALCL, 1 nM.
For the molecule `CCN[C@@H](CO)C(=O)N[C@H](C(=O)N(C)[C@@H]([C@@H](C)CC)[C@@H](CC(=O)N1CCC[C@H]1[C@H](OC)[C@@H](C)C(=O)N[C@H](CO)Cc1ccccc1)OC)C(C)C` [Example 15] (H-[X9]V[Dil][Dolaproine][Phe(ol)]), the IC50 stood at 2.3 nM with Karpas299 NHL, 3.9 nM with L540cy HL and 0.7 nM in the assay with DEL ALCL.
In the same order, the values of `CC[C@H](C)[C@@H]([C@@H](CC(=O)N1CCC[C@H]1[C@H](OC)[C@@H](C)C(=O)N[C@H](CO)Cc1ccccc1)OC)N(C)C(=O)[C@@H](NC(=O)C[C@@H](NC)[C@@H](C)O)C(C)C` [Example 22] are 13 nM, 16 nM and 5.8 nM.
The like results for `CC[C@H](C)[C@@H]([C@@H](CC(=O)N1CCC[C@H]1[C@H](OC)[C@@H](C)C(=O)N[C@H](CO)Cc1ccccc1)OC)N(C)C(=O)[C@@H](NC(=O)[C@@H](N)CO)C(C)C` [Example 23] (H-SV[Dil][Dolaproine][Phe(ol)]) were, in that order, 66 nM, 662 nM and 17 nM.
In the same order, the values of `CC[C@H](C)[C@@H]([C@@H](CC(=O)N1CCC[C@H]1[C@H](OC)[C@@H](C)C(=O)N[C@H](CO)Cc1ccccc1)OC)N(C)C(=O)[C@@H](NC(=O)[C@@H](N)CCO)C(C)C` [Example 24] (H-[hSer]V[Dil][Dolaproine][Phe(ol)]) are 43 nM, 621 nM and 13 nM.
Take `CC[C@H](C)[C@@H]([C@@H](CC(=O)N1CCC[C@H]1[C@H](OC)[C@@H](C)C(=O)N[C@H](CO)Cc1ccccc1)OC)N(C)C(=O)[C@@H](NC(=O)[C@@H](N)[C@@H](C)O)C(C)C` [Example 25] (H-TV[Dil][Dolaproine][Phe(ol)]): the IC50 turned out to be 62 nM in the assay on Karpas299 NHL, 457 nM in the assay with L540cy HL and 18.9 nM with DEL ALCL.
In the same order, the values of `CC[C@H](C)[C@@H]([C@@H](CC(=O)N1CCC[C@H]1[C@H](OC)[C@@H](C)C(=O)N[C@H](C)[C@@H](O)c1ccccc1)OC)N(C)C(=O)[C@@H](NC(=O)[C@H](N)CO)C(C)C` [Example 26] (H-[dS]V[Dil][Dolaproine]-X1) are 5 nM, 20 nM and 4.2 nM.
In the same order, the values of `CC[C@H](C)[C@@H]([C@@H](CC(=O)N1CCC[C@H]1[C@H](OC)[C@@H](C)C(=O)N[C@H](C)[C@@H](O)c1ccccc1)OC)N(C)C(=O)[C@@H](NC(=O)[C@H](N)[C@H](C)O)C(C)C` [Example 27] (H-[dT]V[Dil][Dolaproine]-X1) are 2.3 nM, 13 nM and 1.9 nM.
The like results for `CC[C@H](C)[C@@H]([C@@H](CC(=O)N1CCC[C@H]1[C@H](OC)[C@@H](C)C(=O)N[C@H](CO)Cc1ccccc1)OC)N(C)C(=O)[C@@H](NC(=O)[C@@H]1COC(=O)N1C)C(C)C` [Example 36] (X8-V[Dil][Dolaproine][Phe(ol)]) were, in that order, 27 nM, 197 nM and 6.7 nM.
Regarding `CC[C@H](C)[C@@H]([C@@H](CC(=O)N1CCC[C@H]1[C@H](OC)[C@@H](C)C(=O)N[C@H](C)[C@@H](O)c1ccccc1)OC)N(C)C(=O)[C@@H](NC(=O)[C@@H]1COC(=O)N1C)C(C)C` [Example 37], the IC50 in the assay on Karpas299 NHL, with L540cy HL and in the assay on DEL ALCL was > 1000 nM throughout.
On to `CC[C@H](C)[C@@H]([C@@H](CC(=O)N1CCC[C@H]1[C@H](OC)[C@@H](C)C(=O)NCCc1ccccc1)OC)N(C)C(=O)[C@@H](NC(=O)[C@@H]1COC(=O)N1C)C(C)C` [Example 38], for which the IC50 in the assay on Karpas299 NHL is > 1000 nM; with L540cy HL, 512 nM; with DEL ALCL, 148 nM.
In the same order, the values of `CC[C@H](C)[C@@H]([C@@H](CC(=O)N1CCC[C@H]1[C@H](OC)[C@@H](C)C(=O)N[C@@H](Cc1ccccc1)c1nccs1)OC)N(C)C(=O)[C@@H](NC(=O)[C@@H]1COC(=O)N1C)C(C)C` [Example 39] are > 1000 nM, > 1000 nM and 512 nM.
`CC[C@H](C)[C@@H]([C@@H](CC(=O)N1CCC[C@H]1[C@H](OC)[C@@H](C)C(=O)N[C@H](CO)Cc1ccccc1)OC)N(C)C(=O)[C@@H](NC(=O)[C@@H]1COC(=O)N1)C(C)C` [Example 40] (X5-V[Dil][Dolaproine][Phe(ol)]): the IC50 came out at 60 nM in the assay with Karpas299 NHL, 442 nM with L540cy HL and 12.3 nM in the assay on DEL ALCL.
In the case of `CC[C@H](C)[C@@H]([C@@H](CC(=O)N1CCC[C@H]1[C@H](OC)[C@@H](C)C(=O)N[C@H](CO)Cc1ccccc1)OC)N(C)C(=O)[C@@H](NC(=O)C1CCOC(=O)N1)C(C)C` (stereo partly drawn) [Example 41] (X7-V[Dil][Dolaproine][Phe(ol)]), the IC50 stood at 62 nM in the assay with Karpas299 NHL, 457 nM in the assay with L540cy HL and 15 nM in the assay with DEL ALCL.
The like results for `CC[C@H](C)[C@@H]([C@@H](CC(=O)N1CCC[C@H]1[C@H](OC)[C@@H](C)C(=O)N[C@H](CO)Cc1ccccc1)OC)N(C)C(=O)[C@@H](NC(=O)[C@H]1NC(=O)O[C@@H]1C)C(C)C` [Example 42] (X10-V[Dil][Dolaproine][Phe(ol)]) were, in that order, 64 nM, 481 nM and 16 nM.

The values above are taken from patent publication US20240123080A1, “CYTOTOXIC COMPOUNDS AND CONJUGATES THEREOF” (Seagen Inc., priority 2022, published 2024).
